Legend:
5-LO [1] = target: T1, 5-LO (Homo sapiens, UniProt P09917); test: test a) in vitro heparinised human blood, calcium ionophore A23187 challenge, LTB4 radioimmunoassay; assay type: cell-based
T1 construct: incubating a test compound with heparinised human blood, prior to challenge with the calcium ionophore A23187; from tissue; host or cells: heparinised human blood (endogenous enzyme of the blood cells)
T1 sequence (P09917 1-674): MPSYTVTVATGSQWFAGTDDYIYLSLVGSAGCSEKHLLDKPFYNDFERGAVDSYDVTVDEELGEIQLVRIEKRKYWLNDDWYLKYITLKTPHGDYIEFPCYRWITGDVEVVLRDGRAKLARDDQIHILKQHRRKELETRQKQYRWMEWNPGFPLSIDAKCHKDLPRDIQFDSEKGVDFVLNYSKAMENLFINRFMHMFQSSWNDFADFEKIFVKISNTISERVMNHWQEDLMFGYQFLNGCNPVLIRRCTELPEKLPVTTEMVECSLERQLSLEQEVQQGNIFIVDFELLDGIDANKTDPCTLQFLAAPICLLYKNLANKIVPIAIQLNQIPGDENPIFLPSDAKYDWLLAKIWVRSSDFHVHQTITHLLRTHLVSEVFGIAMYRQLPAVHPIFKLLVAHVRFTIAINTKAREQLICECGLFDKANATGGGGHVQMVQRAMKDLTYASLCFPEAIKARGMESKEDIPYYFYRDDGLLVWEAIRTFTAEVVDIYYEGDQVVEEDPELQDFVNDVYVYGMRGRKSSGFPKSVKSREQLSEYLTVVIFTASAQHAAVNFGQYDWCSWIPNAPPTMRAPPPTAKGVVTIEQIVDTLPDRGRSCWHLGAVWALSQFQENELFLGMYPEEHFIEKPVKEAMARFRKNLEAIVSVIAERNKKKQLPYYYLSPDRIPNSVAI
Method: (§1) As stated previously, the benzodioxole derivatives of the formula I are inhibitors of the enzyme 5-LO.
a) An in vitro assay system involving incubating a test compound with heparinised human blood, prior to challenge with the calcium ionophore A23187 and the indirectly measuring the inhibitory effects on 5-LO by assaying the amount of LTB4 using specific radioimmunoassays described by Carey and Forder (F. Carey and R.A. Forder, Prostaglandins Leukotrienes Med., 1986, 22, 57; Prostaglandins, 1984, 28, 666; Brit. J. Pharmacol. 1985, 84, 34P) which involve the use of a protein-LTB4 conjugate produced using the procedure of Young et alia (Prostaglandins, 1983, 26(4), 605-613). The effects of a test compound on the enzyme cyclooxygenase (which is involved in the alternative metabolic pathway for arachidonic acid and gives rise to prostaglandins, thromboxanes and related metabolites) may be measured at the same time using the specific radioimmunoassay for thromboxane B2 (T×B2) described by Carey and Forder (see above). This test provides an indication of the effects of a test compound against 5-LO and also cyclooxygenase in the presence of blood cells and proteins. It permits the selectivity of the inhibitory effect on 5-LO or cyclooxygenase to be assessed.

5-LO [2] = target: T2, 5-LO (Rattus norvegicus, UniProt P12527); test: test c) in vivo zymosan-induced LTB4 liberation in rat air pouch; conditions: oral, male rats, 3 hours
T2 construct: liberation of LTB4 induced by zymosan within an air pouch generated within the subcutaneous tissue of the back of male rats; from tissue; host or cells: live male rats, zymosan-inflamed subcutaneous air pouch (endogenous enzyme)
T2 sequence (P12527 1-673): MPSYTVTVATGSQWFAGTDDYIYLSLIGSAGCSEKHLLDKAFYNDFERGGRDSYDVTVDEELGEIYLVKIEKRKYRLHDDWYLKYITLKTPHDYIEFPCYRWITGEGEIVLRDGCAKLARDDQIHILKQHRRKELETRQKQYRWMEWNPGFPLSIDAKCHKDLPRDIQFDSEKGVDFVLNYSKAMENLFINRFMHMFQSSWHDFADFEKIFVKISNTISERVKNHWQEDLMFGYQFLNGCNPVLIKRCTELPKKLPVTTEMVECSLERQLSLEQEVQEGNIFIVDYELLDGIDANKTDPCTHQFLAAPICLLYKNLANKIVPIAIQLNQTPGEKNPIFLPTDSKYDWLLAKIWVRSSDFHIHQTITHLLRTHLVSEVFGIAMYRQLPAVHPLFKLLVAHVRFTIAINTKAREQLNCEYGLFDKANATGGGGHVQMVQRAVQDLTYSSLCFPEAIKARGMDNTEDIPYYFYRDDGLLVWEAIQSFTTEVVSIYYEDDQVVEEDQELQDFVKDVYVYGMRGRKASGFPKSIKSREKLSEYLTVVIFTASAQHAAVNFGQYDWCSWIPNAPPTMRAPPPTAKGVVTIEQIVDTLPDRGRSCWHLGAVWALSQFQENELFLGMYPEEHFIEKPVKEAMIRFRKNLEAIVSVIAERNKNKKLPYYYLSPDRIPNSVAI
Method: as §1
c) An in vivo system involving measuring the effects of a test compound administered orally against the liberation of LTB4 induced by zymosan within an air pouch generated within the subcutaneous tissue of the back of male rats. The rats are anaesthetised and air pouches are formed by the injection of sterile air (20 ml). A further injection of air (10 ml) is similarly given after 3 days. At 6 days after the initial air injection the test compound is administered (usually orally as the suspension produced when a solution of the test compound in dimethylsulphoxide is added to hydroxypropylmethylcellulose), followed by the intrapouch injection of zymosan (1 ml of a 1% suspension in physiological saline). After 3 hours the rats are killed, the air pouches are lavaged with physiological saline, and the specific radioimmunoassay described above is used to assay LTB4 in the washings. This test provides an indication of inhibitory effects against 5-LO in an inflammatory milieu.

In the case of `COC1(c2ccc3c(c2)OC(c2ccc4c(ccc(=O)n4C)c2)O3)CCOCC1` (centres unmarked) [5-(4-methoxytetrahydropyran-4-yl)-2-(1-methyl-2-oxo-1,2-dihydroquinolin-6-yl)benzo-1,3-dioxole], the IC50 (5-LO [1]) is reported as 380 nM and the ED50 (5-LO [2]) is reported as under 0.5 mg/kg.

Source: patent US5232930A, “2-heteroaryl-substituted benzodioxoic having 5-lipoxygenase inhibitory activity” (Imperial Chemical Industries PLC, priority 1991, dated 1993)
